According to patent US10131652B2, “Pyrimidinyloxy benzene derivatives as herbicides” (E. I. DU PONT DE NEMOURS AND COMPANY, priority 2014, dated 2018):

Experiments:
Format in all cases: in vivo
[1] = test system: barnyardgrass (Echinochloa crus-galli); experiment: Test C flooded paddy test plant response; conditions: Flood, 250 g ai/ha; scale of 0 to 100 where 0 is no effect and 100 is complete control; 13 to 15 days
Method in brief: (§1)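 Flooded-pot format, 3 cm water over soil maintained for the test duration; test compounds dispensed into the water at the 2-leaf stage. Greenhouse holding 13 to 15 days. Plants evaluated visually relative to untreated controls, 0 meaning no effect and 100 complete control.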

[2] = test system: rice (Oryza sativa); experiment: Test C flooded paddy test plant response; conditions: Flood, 250 g ai/ha; scale of 0 to 100 where 0 is no effect and 100 is complete control; 13 to 15 days
Method in brief: as §1

[3] = test system: ducksalad (Heteranthera limosa); experiment: Test C flooded paddy test plant response; conditions: Flood, 250 g ai/ha; scale of 0 to 100 where 0 is no effect and 100 is complete control; 13 to 15 days
Method in brief: as §1

[4] = test system: small-flower umbrella sedge (Cyperus difformis); experiment: Test C flooded paddy test plant response; conditions: Flood, 250 g ai/ha; scale of 0 to 100 where 0 is no effect and 100 is complete control; 13 to 15 days
Method in brief: as §1

[5] = test system: barnyardgrass (Echinochloa crus-galli); experiment: Test B pre-/postemergence plant response
Method in brief: (§2)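 Greenhouse pots, loam/sand soil; compound formulated with surfactant in non-phytotoxic solvent. Preemergence soil spray and postemergence spray at 1–2 leaf stage run simultaneously. Visual injury, 0–100, about 10 days post-treatment.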

[6] = test system: giant foxtail (Setaria faberii); experiment: Test B pre-/postemergence plant response
Method in brief: as §2

[7] = test system: pigweed (Amaranthus retroflexus); experiment: Test B pre-/postemergence plant response
Method in brief: as §2

[8] = test system: wheat (Triticum aestivum); experiment: Test B pre-/postemergence plant response
Method in brief: as §2

[9] = test system: corn (Zea mays); experiment: Test B pre-/postemergence plant response
Method in brief: as §2

[10] = test system: oilseed rape (Brassica napus); experiment: Test D pre-/postemergence plant response
Method in brief: (§3)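 Preemergence: seeds in loam/sand blend treated with test chemicals in non-phytotoxic solvent with surfactant; postemergence: plants at 2–18 cm (1- to 4-leaf stage) in peat-based medium sprayed likewise. Greenhouse 13 to 15 days, then visual rating vs controls, 0 (no effect) to 100 (complete control).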

[11] = test system: ragweed (common ragweed, Ambrosia elatior); experiment: Test D pre-/postemergence plant response
Method in brief: as §3

[12] = test system: johnsongrass (Sorghum halepense); experiment: Test D pre-/postemergence plant response
Method in brief: as §3

[13] = test system: yellow nutsedge (Cyperus esculentus); experiment: Test D pre-/postemergence plant response
Method in brief: as §3

[14] = test system: winter wheat (Triticum aestivum); experiment: Test D pre-/postemergence plant response
Method in brief: as §3

[15] = test system: galium (catchweed bedstraw, Galium aparine); experiment: Test D pre-/postemergence plant response
Method in brief: as §3

[16] = 31 g ai/ha, Postemergence, 0 to 100 scale, 0 no effect, 100 complete control
[17] = 31 g ai/ha, Preemergence, 0 to 100 scale where 0 is no effect and 100 is complete control
[18] = 125 g ai/ha, postemergence, 0 to 100 scale, 0 no effect, 100 complete control
[19] = Preemergence, 125 g ai/ha, 0 to 100 scale where 0 is no effect and 100 is complete control
[20] = Postemergence, 16 g ai/ha, scale 0 to 100 (0 no effect, 100 complete control)
[21] = Postemergence, 31 g ai/ha, scale 0 to 100 (0 no effect, 100 complete control)
[22] = Postemergence, 62 g ai/ha, scale 0 to 100, 0 no effect, 100 complete control
[23] = Postemergence, 125 g ai/ha, scale 0 to 100, 0 no effect, 100 complete control
[24] = Preemergence, 16 g ai/ha, scale 0 to 100 (0 no effect, 100 complete control)
[25] = Preemergence, 31 g ai/ha, scale 0 to 100 (0 no effect, 100 complete control)
[26] = Preemergence, 62 g ai/ha, scale 0 to 100 (0 no effect, 100 complete control)
[27] = Postemergence, 500 g ai/ha, 0 to 100 scale (0 no effect, 100 complete control)
[28] = Preemergence, 125 g ai/ha, 0 to 100 scale (0 no effect, 100 complete control)
[29] = Preemergence, 500 g ai/ha, 0 to 100 scale where 0 is no effect and 100 is complete control

Structure (SMILES): FC(F)c1cc(-c2c(Cl)cccc2Oc2ncc(Cl)cn2)on1 [Compound 120]
- Barnyardgrass plant response rating [1]: 90
- Rice plant response rating [2]: 90
- Ducksalad plant response rating [3]: 100
- Sedge, Umbrella plant response rating [4]: 95
- Plant response rating, Barnyardgrass [5, 16]: 50
- Plant response rating, Barnyardgrass [5, 17]: 90
- Plant response rating, Barnyardgrass [5, 18]: 90
- Plant response rating, Barnyardgrass [5, 19]: 100
- Plant response rating, Foxtail, Giant [6, 16]: 40
- Plant response rating, Foxtail, Giant [6, 17]: 100
- Plant response rating, Foxtail, Giant [6, 18]: 90
- Plant response rating, Foxtail, Giant [6, 19]: 100
- Plant response rating, Pigweed [7, 16]: 100
- Plant response rating, Pigweed [7, 17]: 100
- Plant response rating, Pigweed [7, 18]: 100
- Plant response rating, Wheat [8, 16]: 0
- Plant response rating, Wheat [8, 18]: 40
- Plant response rating, Corn [9, 16]: 30
- Plant response rating, Corn [9, 18]: 40
- Oilseed Rape plant response rating [10, 20]: 80
- Oilseed Rape plant response rating [10, 21]: 85
- Plant response rating, Oilseed Rape [10, 22]: 90
- Plant response rating, Oilseed Rape [10, 23]: 95
- Plant response rating (scale 0 to 100), Oilseed Rape ([10]; Preemergence, 125 g ai/ha): 100
- Plant response rating, Oilseed Rape [10, 24]: 50
- Plant response rating, Oilseed Rape [10, 25]: 90
- Plant response rating, Oilseed Rape [10, 26]: 95
- Ragweed plant response rating [11, 20]: 40
- Ragweed plant response rating [11, 21]: 55
- Plant response rating, Ragweed [11, 22]: 70
- Plant response rating, Ragweed [11, 23]: 85
- Plant response rating (scale 0 to 100), Ragweed ([11]; Preemergence, 125 g ai/ha): 100
- Plant response rating, Ragweed [11, 24]: 0
- Plant response rating, Ragweed [11, 25]: 0
- Plant response rating, Ragweed [11, 26]: 25
- Johnsongrass plant response rating [12, 20]: 5
- Johnsongrass plant response rating [12, 21]: 30
- Plant response rating, Johnsongrass [12, 22]: 40
- Plant response rating, Johnsongrass [12, 23]: 85
- Plant response rating (scale 0 to 100), Johnsongrass ([12]; Preemergence, 125 g ai/ha): 98
- Plant response rating, Johnsongrass [12, 24]: 50
- Plant response rating, Johnsongrass [12, 25]: 55
- Plant response rating, Johnsongrass [12, 26]: 95
- Nutsedge, Yellow plant response rating [13, 20]: 5
- Nutsedge, Yellow plant response rating [13, 21]: 10
- Plant response rating, Nutsedge, Yellow [13, 22]: 10
- Plant response rating, Nutsedge, Yellow [13, 23]: 15
- Plant response rating (scale 0 to 100), Nutsedge, Yellow ([13]; Preemergence, 125 g ai/ha): 45
- Plant response rating, Nutsedge, Yellow [13, 24]: 0
- Plant response rating, Nutsedge, Yellow [13, 25]: 5
- Plant response rating, Nutsedge, Yellow [13, 26]: 35
- Wheat plant response rating [14, 20]: 0
- Wheat plant response rating [14, 21]: 0
- Plant response rating, Wheat [14, 22]: 0
- Plant response rating, Wheat [14, 23]: 0
- Plant response rating (scale 0 to 100), Wheat ([14]; Preemergence, 125 g ai/ha): 5
- Plant response rating, Wheat [14, 24]: 0
- Plant response rating, Wheat [14, 25]: 0
- Plant response rating, Wheat [14, 26]: 5
- Galium plant response rating [15, 20]: 98
- Galium plant response rating [15, 21]: 98
- Plant response rating, Galium [15, 22]: 100
- Plant response rating, Galium [15, 23]: 100
- Plant response rating (scale 0 to 100), Galium ([15]; Preemergence, 125 g ai/ha): 90
- Plant response rating, Galium [15, 24]: 90
- Plant response rating, Galium [15, 25]: 98
- Plant response rating, Galium [15, 26]: 90

Structure (SMILES): FC(F)c1cc(-c2c(Cl)cccc2Oc2ncc(Cl)cn2)no1 [Compound 179]
- Barnyardgrass plant response rating [1]: 0
- Rice plant response rating [2]: 40
- Ducksalad plant response rating [3]: 80
- Sedge, Umbrella plant response rating [4]: 80
- Plant response rating, Barnyardgrass [5, 18]: 10
- Plant response rating, Barnyardgrass [5, 27]: 80
- Barnyardgrass plant response rating [5, 28]: 10
- Plant response rating, Barnyardgrass [5, 29]: 90
- Plant response rating, Foxtail, Giant [6, 18]: 40
- Plant response rating, Foxtail, Giant [6, 27]: 80
- Foxtail, Giant plant response rating [6, 28]: 80
- Plant response rating, Foxtail, Giant [6, 29]: 100
- Plant response rating, Pigweed [7, 18]: 100
- Plant response rating, Pigweed [7, 27]: 100
- Pigweed plant response rating [7, 28]: 100
- Plant response rating, Pigweed [7, 29]: 100
- Plant response rating, Wheat [8, 18]: 40
- Plant response rating, Wheat [8, 27]: 90
- Plant response rating, Corn [9, 18]: 10
- Plant response rating, Corn [9, 27]: 40
- Plant response rating (scale 0 to 100), Oilseed Rape ([10]; Postemergence, 16 g ai/ha): 40
- Oilseed Rape plant response rating [10, 21]: 75
- Oilseed Rape plant response rating [10, 22]: 85
- Plant response rating, Oilseed Rape [10, 23]: 100
- Plant response rating (scale 0 to 100), Oilseed Rape ([10]; Preemergence, 125 g ai/ha): 100
- Plant response rating, Oilseed Rape [10, 24]: 30
- Plant response rating, Oilseed Rape [10, 25]: 95
- Plant response rating (scale 0 to 100), Ragweed ([11]; Postemergence, 16 g ai/ha): 30
- Ragweed plant response rating [11, 21]: 25
- Ragweed plant response rating [11, 22]: 50
- Plant response rating, Ragweed [11, 23]: 60
- Plant response rating (scale 0 to 100), Ragweed ([11]; Preemergence, 125 g ai/ha): 60
- Plant response rating, Ragweed [11, 24]: 25
- Plant response rating, Ragweed [11, 25]: 30
- Plant response rating, Ragweed [11, 26]: 40
- Plant response rating (scale 0 to 100), Johnsongrass ([12]; Postemergence, 16 g ai/ha): 0
- Johnsongrass plant response rating [12, 21]: 5
- Plant response rating, Johnsongrass [12, 22]: 5
- Plant response rating, Johnsongrass [12, 23]: 5
- Plant response rating (scale 0 to 100), Johnsongrass ([12]; Preemergence, 125 g ai/ha): 65
- Plant response rating, Johnsongrass [12, 24]: 0
- Plant response rating, Johnsongrass [12, 25]: 0
- Plant response rating, Johnsongrass [12, 26]: 20
- Plant response rating (scale 0 to 100), Nutsedge, Yellow ([13]; Postemergence, 16 g ai/ha): 5
- Nutsedge, Yellow plant response rating [13, 21]: 5
- Nutsedge, Yellow plant response rating [13, 22]: 5
- Plant response rating, Nutsedge, Yellow [13, 23]: 5
- Plant response rating (scale 0 to 100), Nutsedge, Yellow ([13]; Preemergence, 125 g ai/ha): 25
- Plant response rating, Nutsedge, Yellow [13, 24]: 0
- Plant response rating, Nutsedge, Yellow [13, 25]: 0
- Plant response rating, Nutsedge, Yellow [13, 26]: 0
- Plant response rating (scale 0 to 100), Wheat ([14]; Postemergence, 16 g ai/ha): 5
- Wheat plant response rating [14, 21]: 10
- Wheat plant response rating [14, 22]: 30
- Plant response rating, Wheat [14, 23]: 35
- Plant response rating (scale 0 to 100), Wheat ([14]; Preemergence, 125 g ai/ha): 35
- Plant response rating, Wheat [14, 24]: 0
- Plant response rating, Wheat [14, 25]: 0
- Plant response rating, Wheat [14, 26]: 0
- Plant response rating (scale 0 to 100), Galium ([15]; Postemergence, 16 g ai/ha): 70
- Galium plant response rating [15, 21]: 80
- Plant response rating, Galium [15, 22]: 70
- Plant response rating, Galium [15, 23]: 75
- Plant response rating (scale 0 to 100), Galium ([15]; Preemergence, 125 g ai/ha): 98
- Plant response rating, Galium [15, 24]: 90
- Plant response rating, Galium [15, 25]: 90
- Plant response rating, Galium [15, 26]: 90
